# Laboratory results from US9480702B2, “Use of chemically modified heparin derivates in sickle cell disease” (DILAFORETTE AB, priority 2011, dated 2016).
# “Also recorded” adds a separate entry of the source. Read-outs that look alike come from different tables or passages of the source.
# Columns and labels:
# factor IIa [1] = target: T1, factor IIa (Homo sapiens, UniProt P00734+P01008); conditions: measured values on the produced DF02
# [2] = tested on: SS RBC adhesion to endothelial cells treated with IL-13 and histamine; test: In vitro sickle red blood cell adhesion to HUVECs in flow chamber; format: cell-based, human; conditions: for Inhibition of SS RBC adhesion to endothelial cells (overall): HUVECs stimulated with IL-13 and histamine
# Protocol: Primary HUVECs (passage 4 only) were cultured to confluency on gelatin-coated slides in […] basal medium 2 (EBM2; Clonetics, Walkersville, Md.) supplemented with endothelial growth medium 2 (EGM2; Clonetics, Walkersville, Md.). For each assay, a gelatin coated slide with HUVECs grown to confluence was mounted inside a graduated height flow chamber. Both untreated and IL-13/histamine-stimulated slides were initially studied with each SS RBC sample. Subsequent experiments then compared adhesion with and without potential inhibitors of adhesion.
# Human blood samples from patients homozygous for hemoglobin S were collected into citrate tubes.
# In vitro studies of cell adhesion exposed to flowing conditions represent in vivo events, as compared to adhesion assays in which cells are simply allowed to incubate overlaid on a chemical or cellular substrate (e.g. laminin or endothelial cells) and then washed off by either non-controlled forces (e.g. pipette washes) or controlled forces (e.g. rotary motion devices). Flow chambers can produce either a constant shear stress throughout the chamber or a variable shear stress, produced by creating a variable height for the chamber.
# Surface expression of P-selectin on IL-13 and histamine stimulated and unstimulated endothelial cells (HUVECs) were tested by flow cytometry. Measurement of the ability of SS RBC to adhere to these endothelial cells was performed in flow chambers. Negative control experiments included untreated endothelial cells, so that SS RBC adhesion to treated and untreated cells could be compared.
# Multiple dose-finding experiments were conducted.
# human P-selectin = target: T2, human P-selectin (Homo sapiens, UniProt P16109); test: Binding to P-selectin analyzed by optical biosensor (surface plasmon resonance, Biacore 2000); conditions: read-out: apparent KD
# T2 construct: Fc (IgG Fc fusion partner)
# Protocol: The heparin derivatives were desalted and transferred into running buffer using desalting columns. The molar concentrations of the eluates were determined by analysis of UA content (mg/ml) using the phenylphenol method (Blumenkrantz et al. 1973 Anal Biochem 54, 484-9). […] The data was analyzed using BIAevaluation software, version 3. To prepare the biosensor assay, the capturing affinity purified goat anti-human IgG Fc antibody was immobilized onto a carboxymethyl dextran chip. The antibody was injected at a concentration of 50 μg/ml in 50 mM sodium acetate buffer, pH 5.0 for 12 min at […] resulting in a final response of approximately 16,200 response units (RU) in flow cell 1 and 13,400 RU in flow cell 2. Remaining activated groups were blocked with an injection of ethanolamine-HCl. The P-selectin/Fc chimera was captured onto the antibody surface in flow cell 2 (Bachelet L. et al. 2009, Biochim et Biophys Acta 1790, 1416), by injecting the molecule at a concentration of 35 ug/mL, using running buffer (10 mM Hepes, 150 mM NaCl, 1 mM CaCl2, 0.005% Tween-20, pH 7.4, filtered 0.02 μm) in the mobile phase. […] The binding of different heparin derivatives to P-selectin was analyzed using running buffer at 20 μl/min. After the association and dissociation phase of each sample, regeneration of the surface was performed using running buffer containing 0.8 M NaCl. Data from the reference surface was subtracted from the data from the P-selectin surface. Stability of the P-selectin surface was verified by measuring the response from injections of 0.1 mg/mL heparin in the beginning and the end of each experiment.
# The response data at steady-state was plotted against the concentration (data not shown). The data was analyzed using non-linear regression, assuming 1:1 binding. […] The peak value (Mp) was used instead of the (higher) Mw value when calculating the molar concentrations of UFH.
# [3] = APTT in citrate plasma of dosed rats; format: in vivo, Sprague-Dawley rats; conditions: i.v. dosing, heparin = 1
# Protocol: (§1) Test procedures were as follows:
# Citrate stabilized plasma was prepared from the blood.
# (§2) Saline: (Negative Control) • 3.
# [4] = tested on: SS RBC adhesion to the endothelium
# Description: These experiments utilize a previously described animal model (Zennadi et al. Blood 2007), in which window chambers are first implanted into the flanks of nude mice. Three to five days later, human normal or sickle red cells are infused into the mouse (usually through the tail vein) pre-treated with TNF-α (to induce inflammation and upregulate P-selectin expression); mice treated with vehicle only may be studied as controls. Female mice (nu−/nu−) 8-12 weeks in age from Jackson Laboratories, Bar Harbor, Me., were used to perform experiments described.
# RBCs to be infused are pre-labelled with a fluorescent dye. The cells' adhesion may then be observed in subdermal blood vessels visible through the previously implanted window chambers. […] In addition, in some of these experiments, blood samples were drawn during the observation period in order to quantitate specific variables, such as cell survival. This model has the great advantages of providing direct visualization of cells in the context of whole blood and of allowing circulation of transfused cells under normal circulatory pressures.
# [5] = Bleeding time after tail incision in rats; format: in vivo, Sprague-Dawley rats; conditions: for Estimated equipotent doses with respect to effects on bleeding time, normalized vs. heparin: rats, i.v. dosing, heparin = 1
# Protocol: as §1
# The incision was 9 mm long and 1 mm deep and was standardized using a template device. Blood was blotted from the incision until bleeding stopped. The time during which visible bleeding could be observed was measured, for up to 25 minutes. The longer the bleeding time, the more pronounced the anti-coagulant effects of the administered agent.
# as §2
# factor Xa [6] = conditions: measured values on the produced DF02
# [7] = cited from earlier work
# factor Xa [8] = conditions: comparison value; cited from earlier work
# factor IIa [9] = target: T1, factor IIa; conditions: comparison value; cited from earlier work
# [10] = daily prophylactic dose, four patients; cited from earlier work
# [11] = injected before and after induction of vaso-occlusion
# [12] = steady-state response, non-linear regression assuming 1:1 binding, P-selectin/Fc chimera captured on chip
# T2 sequence (P16109 with tags, fused parts or gaps limits assumed): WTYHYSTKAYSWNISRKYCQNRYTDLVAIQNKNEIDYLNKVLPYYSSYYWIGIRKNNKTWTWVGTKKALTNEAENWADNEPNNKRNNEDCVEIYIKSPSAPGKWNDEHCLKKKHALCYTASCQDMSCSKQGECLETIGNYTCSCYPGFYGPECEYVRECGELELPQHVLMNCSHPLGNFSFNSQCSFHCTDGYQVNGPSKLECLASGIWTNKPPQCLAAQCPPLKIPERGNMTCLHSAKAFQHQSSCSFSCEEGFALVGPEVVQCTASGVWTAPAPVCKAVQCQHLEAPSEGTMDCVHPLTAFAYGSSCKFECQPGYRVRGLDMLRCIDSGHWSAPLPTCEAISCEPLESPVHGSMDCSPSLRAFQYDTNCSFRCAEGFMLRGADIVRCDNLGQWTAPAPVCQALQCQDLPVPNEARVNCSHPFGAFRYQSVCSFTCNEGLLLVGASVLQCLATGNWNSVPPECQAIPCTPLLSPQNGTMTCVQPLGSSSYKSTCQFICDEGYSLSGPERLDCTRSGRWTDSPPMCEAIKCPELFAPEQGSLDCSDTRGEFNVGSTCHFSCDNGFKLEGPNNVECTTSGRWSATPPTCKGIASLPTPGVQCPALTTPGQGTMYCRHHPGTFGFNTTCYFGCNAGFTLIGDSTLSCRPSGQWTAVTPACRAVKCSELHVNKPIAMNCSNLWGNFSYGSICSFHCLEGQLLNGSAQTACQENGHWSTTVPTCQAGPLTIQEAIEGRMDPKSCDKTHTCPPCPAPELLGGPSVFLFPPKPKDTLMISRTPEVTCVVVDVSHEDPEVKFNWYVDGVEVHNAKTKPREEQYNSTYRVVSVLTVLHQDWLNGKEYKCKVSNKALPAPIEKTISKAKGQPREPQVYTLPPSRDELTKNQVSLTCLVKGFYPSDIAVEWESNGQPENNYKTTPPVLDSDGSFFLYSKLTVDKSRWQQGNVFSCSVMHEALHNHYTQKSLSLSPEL
substance,measurement,setting,value
sevuparin sodium [DF02],antiIIa activity,factor IIa [1],less than 10 IU/mg
same,Effect on SS RBC adhesion,[2]; 100 μg/ml,appeared to inhibit adhesion as much as did higher concentrations; also recorded: easily detectable
same,Inhibition of SS RBC adhesion compared to tinzaparin,"[2]; 400 μg/ml, most samples",equivalent to the same concentration of tinzaparin
same,Effect on SS RBC adhesion,[2]; 10 and 50 μg/ml,little effect
same,Inhibition of SS RBC adhesion to endothelial cells (overall),[2],able to inhibit SS RBC adhesion
same,Kd,human P-selectin,700 nM
same,"Estimated equipotent doses with respect to effects on APTT, normalized vs. heparin",[3],30-40
same,"Vessel occupancy, decrease",[4]; as compared to a saline injection,50%
same,Effect on adhered SS-RBC,[4]; [11],inhibition and reversal of adhered SS-RBC
same,Effect on blood flow,[4]; [11],partial normalization of the blood flow
same,Number of vessels that reached a normalized blood flow,"[4]; mouse, in vivo",dose dependent effect
same,Anti-coagulant effect (bleeding time and coagulation parameters),"[5]; adult rats, i.v.",reduced anti-coagulant effect
same,Anti-coagulant effect (bleeding time and coagulation parameters),[5]; juvenile rats of age 14±1 days,reduced anti-coagulant effect
same,"Estimated equipotent doses with respect to effects on bleeding time, normalized vs. heparin",[5],30-50
same,antiXa activity,factor Xa [6],less than 10 IU/mg
same,Effect on PT,adult rats,too weak to allow for comparative estimates
same,Effect on PT,juvenile rats,weak
Tinzaparin natrium,Inhibition of SS RBC adhesion to endothelial cells (overall),[2],quite effective in reducing SS RBC adhesion
same,Bleeding events,[7]; clinical study,several cases of bleeding events
same,Duration of hospitalization,[7]; sickle VOC,significantly shortened
same,Duration of the most-severe pain scores,[7]; sickle VOC,significantly shortened
same,Kd,human P-selectin; [12],4000 nM
Heparin Sodium,Corresponding value of specific anticoagulant activity (anti-factor Xa),factor Xa [8],at least 180 IU/mg
same,Kd,human P-selectin; [12],200 nM
same,"Estimated equipotent doses with respect to effects on APTT, normalized vs. heparin",[3],1
same,Anti-coagulant effect (bleeding time and coagulation parameters),"[5]; adult rats, i.v.",profound dose-related effects on all parameters investigated
same,"Estimated equipotent doses with respect to effects on bleeding time, normalized vs. heparin",[5],1
same,Corresponding value of specific anticoagulant activity (anti-factor IIa),factor IIa [9],at least 180 IU/mg
same,Pain and days at hospital,[10],pain reduction and fewer days at hospital
